Series [1] relates to xenograft models of human non-small cell lung cancer (NSCLC), colon cancer, breast cancer, melanoma, and glioblastoma. To be noted: including models resistant to taxanes or other microtubule-active compounds; cited from earlier work.
Another series is described as follows: Solubility of the salt. In kind it is physicochemical.

For two compounds, antitumor activity and solubility results are on record in patent US20070149552A1, “Lyophilized compositions of a triazolopyrimidine compound” (Wyeth, priority 2005, published 2007).

On to `CNCCCOc1cc(F)c(-c2c(Cl)nc3ncnn3c2N[C@@H](C)C(F)(F)F)c(F)c1` [Compound Ia, 5-chloro-6-{2,6-difluoro-4-[3-(methylamino)propoxy]phenyl}-N-[(1S)-2,2,2-trifluoro-1-methylethyl][1,2,4]triazolo[1,5-a]pyrimidin-7-amine], for which the antitumor activity result in series [1] is “broad antitumor activity”.

As to `CNCCCOc1cc(F)c(-c2c(Cl)nc3ncnn3c2N[C@@H](C)C(F)(F)F)c(F)c1.O=C(O)CCC(=O)O` [succinate dihydrate salt of Compound Ia], in the series “Solubility of the salt”, the solubility entry is “reasonable solubility”.
